Each structure is given as a SMILES string. Where only a bound is given, the exact number is not on record here.

As a reminder, the IC50 is the point on the concentration scale where inhibition reaches its midpoint. Higher therefore signals weaker potency in that assay.

One assay deals with IRAK4 (Homo sapiens (Human), UniProt Q9NWZ3). The assay can be described thus: IRAK-4 biochemical kinase assay, AlphaScreen format.
Sequence of IRAK4 (Q9NWZ3 whole entry, species assumed): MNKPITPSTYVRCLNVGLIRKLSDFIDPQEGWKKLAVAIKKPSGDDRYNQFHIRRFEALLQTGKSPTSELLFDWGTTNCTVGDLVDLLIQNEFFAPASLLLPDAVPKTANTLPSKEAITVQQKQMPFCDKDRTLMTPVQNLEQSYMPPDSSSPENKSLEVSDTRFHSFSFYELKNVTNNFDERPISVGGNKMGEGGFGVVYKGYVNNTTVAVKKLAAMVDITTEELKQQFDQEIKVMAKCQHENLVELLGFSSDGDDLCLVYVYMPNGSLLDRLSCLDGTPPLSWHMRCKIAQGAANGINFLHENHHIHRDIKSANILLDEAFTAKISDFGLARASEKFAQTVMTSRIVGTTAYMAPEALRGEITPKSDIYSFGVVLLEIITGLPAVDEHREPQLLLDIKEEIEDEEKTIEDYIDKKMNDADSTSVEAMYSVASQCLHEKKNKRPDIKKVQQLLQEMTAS
Details: not given
As to the method: The biochemical assay is in a AlphaScreen format. The kinase reaction is based on the IRAK-4 phosphorylation of a biotin labeled peptide. The phosphopeptide is incubated with anti-phosphothreonine antibody as well as streptavidin- and protein A-coated beads. Binding of the protein-A coated beads to the antibody and the streptavidin beads to the peptide, leads to an energy transfer from one bead to the other, ultimately producing a luminescent/fluorescent signal.
Consider `O=C1Nc2ccccc2OCCCCCCCn2cc(cn2)-c2nc1cs2` [Compound 6], for which the IC50 was less than 1 µM.

Staying with this assay, now noted: 1 nM IRAK4, 1.6 μM peptide, 10 μM ATP, 3.5 h at RT; class symbols.
In the case of `O=C(NCCN1CCCCC1)c1ccc2c(c1)NC(=O)c1csc(n1)-c1ccnc(c1)NCCCCCO2` [Compound 18], the IC50 was less than 0.1 µM.

With `CN(C)CCN1CCCCCCOc2cc(ccn2)-c2nc(co2)C1=O` [Compound 54], the half-inhibitory concentration (IC50) was less than 1 µM.

`Cn1cc2c(n1)C(=O)NCCOCCOc1cc(ccn1)-n1cc(cn1)C(=O)N2` [Example 202]: the IC50 is less than 10 µM.

`CN(C)C(=O)N1CCCc2cc(ccn2)-c2nc(cs2)C(=O)Nc2cn(C3CCOCC3)nc2C(=O)NCC1` [Example 187] registered a 50% inhibitory concentration (IC50) of less than 1 µM. Still for that read-out and setting: next, `Cn1cc2c(n1)C(=O)NCCOCCOc1cc(ccn1)-c1nc(co1)C(=O)N2` [Compound 35]: less than 0.1 µM; `Cn1cc2c(n1)C(=O)NCCCCCc1cc(ccn1)-c1nc(cn1COCC[Si](C)(C)C)C(=O)N2` [Example 99]: less than 10 µM. For the molecule `CCC(=O)N1CCCc2cc(ccn2)-c2nc(cs2)C(=O)Nc2cn(C3CCOCC3)nc2C(=O)NCC1` [Example 183], the IC50 was less than 0.1 µM. Same read-out and setting: for `O=C1c2coc(n2)-c2ccnc(c2)OCCCCOCC2CCCN12` (stereo not drawn) [Example 104] the value was less than 10 µM. Still for that read-out and setting: next, `O=C(O)c1ccc2c(c1)NC(=O)c1csc(n1)-c1ccnc(c1)NCCCCCO2` [Compound 15]: less than 10 µM. Take `O=C1Nc2cn(C3CCOCC3)nc2C(=O)NCCNCCCc2cc(ccn2)-c2nc1cs2` [Example 168]: the IC50 was less than 0.1 µM. The same measure, in the same setting: next, `Cn1cc2c(n1)C(=O)NCCCCCOc1cnccc1-c1nc(co1)C(=O)N2` [Example 63]: less than 0.1 µM. On to `CN1CCCCCCOc2cc(ccn2)-c2nc(cs2)C1=O` [Example 103], for which the IC50 is less than 10 µM. In the case of `O=C1Nc2cn(C3CCOCC3)nc2C(=O)NCCCCCOc2cc(ccn2)-c2nc1co2` [Compound 38], the IC50 is less than 0.1 µM.

Molecule `Cn1cc2c(n1)C(=O)N(COCC[Si](C)(C)C)CCCCOc1cc(ccn1)-c1nc(cn1COCC[Si](C)(C)C)C(=O)N2` [Example 93] displayed an IC50 of less than 10 µM. Still for that read-out and setting: next, `CC1CCCCOc2ccccc2NC(=O)c2coc(n2)-c2ccnc(c2)N1` (stereo not drawn) [Compound 10]: less than 0.1 µM; `Cn1cc2c(n1)C(=O)NCCOCCOc1cc(ccn1)-c1csc(n1)C(=O)N2` [Example 213]: less than 10 µM; `O=C1Nc2ccccc2OCCCCCCc2cc(ccn2)-c2nc1co2` [Compound 5]: less than 0.1 µM. The molecule `O=C1NCC2CCCC(C2)OCCCNc2cc(ccn2)-c2nc1cs2` (stereo not drawn) [Example 80] yielded an IC50 of less than 10 µM.

With `C[Si](C)(C)CCOCn1cc2nc1-c1ccnc(c1)CCCCCNC(=O)c1nn(C3CCOCC3)cc1NC2=O` [Example 98], the 50% inhibitory concentration (IC50) is less than 10 µM.

For `Cn1cc2c(n1)C(=O)NCCCCCn1cc(cn1)-c1nc(co1)C(=O)N2` [Compound 41], the half-inhibitory concentration (IC50) was less than 1 µM. Still for that read-out and setting: for `CC1CCCC(C)Oc2ccccc2NC(=O)c2coc(n2)-c2ccnc(c2)N1` (stereo not drawn) [Example 71] the value was less than 0.1 µM; for `O=C1Nc2cn(C3CCOCC3)nc2C(=O)NCCN(C(=O)C2CC2)CCCc2cc(ccn2)-c2nc1cs2` [Example 184], less than 0.1 µM; for `CC(C)(C)OC(=O)NCCC(=O)N1CCCc2cc(ccn2)-c2nc(cs2)C(=O)Nc2cn(C3CCOCC3)nc2C(=O)NCC1` [Example 171], less than 0.1 µM. For the molecule `CC1CNC(=O)c2coc(n2)-c2ccnc(c2)NCCCCCO1` (stereo not drawn) [Example 74], the concentration for half-maximal inhibition (IC50) is less than 10 µM. On the same count and under the same terms, for `Cn1cc2c(n1)C(=O)NCCOCCOc1cc(ccn1)-c1cccc(c1)C(=O)N2` [Example 209] the value was less than 1 µM; for `O=C1Nc2cn(C3CCOCC3)nc2C(=O)NCCOCCOc2cc(ccn2)-c2cccc1c2` [Example 210], less than 0.1 µM. For the molecule `CC(C)(C)C(=O)N1CCCc2cc(ccn2)-c2nc(cs2)C(=O)Nc2cn(C3CCOCC3)nc2C(=O)NCC1` [Example 182], the concentration for half-maximal inhibition (IC50) was less than 1 µM.

`CN1CCCCCOc2ccccc2NC(=O)c2coc(n2)-c2ccnc1c2` [Compound 11] registered an IC50 of less than 1 µM.

With `CNC(=O)c1ccc2c(c1)NC(=O)c1csc(n1)-c1ccnc(c1)NCCCCCO2` [Compound 17], the IC50 was less than 0.1 µM. `NC(=O)CCN1CCCc2cc(ccn2)-c2nc(cs2)C(=O)Nc2cn(C3CCOCC3)nc2C(=O)NCC1` [Example 181] registered an IC50 of less than 0.1 µM. Turning to `Cn1cc2c(n1)C(=O)NCCCCCOc1cc(ccn1)-c1nc(co1)C(=O)N2` [Compound 37], the half-maximal inhibitory concentration (IC50) is less than 0.1 µM. Regarding `Cn1cc2c(n1)C(=O)NCCCCCNc1cc(ccn1)-c1nc(co1)C(=O)N2` [Compound 33], the IC50 is less than 0.1 µM. On to `O=C1Nc2ccccc2OCC/C=C/COc2cc(ccn2)-c2nc1co2` [Example 1], for which the half-maximal inhibitory concentration (IC50) was less than 0.1 µM. Take `CC1NC(=O)c2nn(C3CCOCC3)cc2NC(=O)c2csc(n2)-c2ccnc(c2)CCCNC1=O` (stereo not drawn) [Example 197]: the concentration for half-maximal inhibition (IC50) is less than 1 µM. For the molecule `O=C1NCCCCCCOc2cc(ccn2)-c2nc1co2` [Compound 58], the IC50 was less than 1 µM. The molecule `O=C1NCC(c2ccccc2)OCCCCCNc2cc(ccn2)-c2nc1co2` (stereo not drawn) [Example 76] came in with an IC50 of less than 0.1 µM. Same read-out and setting: next, `O=C1CNC(=O)c2nn(C3CCOCC3)cc2NC(=O)c2csc(n2)-c2ccnc(c2)CCCN1` [Example 196]: less than 0.1 µM; `O=C1Nc2ccccc2OCCCCCCCn2cc(cn2)-c2nc1co2` [Compound 8]: less than 0.1 µM; `O=C1Nc2ccc(CCCN3CCCCC3)cc2OCCCCCNc2cc(ccn2)-c2nc1cs2` [Compound 27]: less than 0.1 µM.

The molecule `O=C1Nc2cn(C3CCOCC3)nc2C(=O)NC(CCO)C(=O)NCCCc2cc(ccn2)-c2nc1cs2` (stereo not drawn) [Example 198] gave a concentration for half-maximal inhibition (IC50) of less than 10 µM.

`CCN1CCCCCCCCNC(=O)c2csc(n2)-c2ccnc1c2` [Example 67] showed a 50% inhibitory concentration (IC50) of less than 1 µM.

With `O=C1Nc2cn(C3CCOCC3)nc2C(=O)NCCCCCc2cc(ccn2)-c2nc1c[nH]2` [Example 97], the IC50 was less than 10 µM. Still for that read-out and setting: for `CN1CCOCCNC(=O)c2nn(C3CCOCC3)cc2NC(=O)c2csc(n2)-c2ccnc1c2` [Example 219] the value was less than 0.1 µM; for `CCOC(=O)CCN1CCCc2cc(ccn2)-c2nc(cs2)C(=O)Nc2cn(C3CCOCC3)nc2C(=O)NCC1` [Example 180], less than 0.1 µM. Molecule `O=C(O)CCN1CCCc2cc(ccn2)-c2nc(cs2)C(=O)Nc2cn(C3CCOCC3)nc2C(=O)NCC1` [Example 179] registered an IC50 of less than 0.1 µM. For the molecule `O=C1Nc2cn(C3CCOCC3)nc2C(=O)NCCOCCOc2cc(ccn2)-c2cc1ccn2` [Example 212], the 50% inhibitory concentration (IC50) was less than 1 µM.

`CN1CCCCNC(=O)c2nn(C3CCOCC3)cc2NC(=O)c2csc(n2)-c2ccnc1c2` [Example 224]: the IC50 is less than 0.1 µM.

As for `Cn1cc(N2CCCCCOc3cnccc3-c3nc(co3)C2=O)cn1` [Compound 61], the IC50 was less than 1 µM. Still for that read-out and setting: next, `O=C1NCCCCCCCCCn2cc(cn2)-c2nc1co2` [Compound 9]: less than 1 µM. Consider `CCNC(=O)N1CCCc2cc(ccn2)-c2nc(cs2)C(=O)Nc2cn(C3CCOCC3)nc2C(=O)NCC1` [Example 191], for which the IC50 was less than 0.1 µM. Still for that read-out and setting: for `O=C1c2coc(n2)-c2ccnc(c2)OCCCCCCN1Cc1ccccc1` [Compound 51] the value was less than 10 µM. `CNC(=O)N1CCCc2cc(ccn2)-c2nc(cs2)C(=O)Nc2cn(C3CCOCC3)nc2C(=O)NCC1` [Example 186]: the IC50 is less than 0.1 µM.

With `Cn1cc2c(n1)C(=O)NCCCCOc1cc(ccn1)-c1nc(c[nH]1)C(=O)N2` [Example 92], the IC50 was less than 10 µM. Still for that read-out and setting: next, `Cn1cc2c(n1)C(=O)NCCCCOc1cnccc1-c1nc(co1)C(=O)N2` [Example 62]: less than 1 µM; `NC(=O)c1ccc2c(c1)NC(=O)c1csc(n1)-c1ccnc(c1)NCCCCCO2` [Compound 24]: less than 0.1 µM; `O=C1NCC(C2CC2)OCCCCCNc2cc(ccn2)-c2nc1co2` (stereo not drawn) [Example 75]: less than 1 µM. For the molecule `O=C1NCC2CCC(CC2)OCCNc2cc(ccn2)-c2nc1co2` [Example 85], the concentration for half-maximal inhibition (IC50) was less than 1 µM. In turn, `O=C1Nc2cn(C3CCOCC3)nc2C(=O)NCCN(C(=O)C2CCOCC2)CCCc2cc(ccn2)-c2nc1cs2` [Example 190] showed an IC50 of less than 0.1 µM. Still for that read-out and setting: next, `O=C(CCC1NC(=O)c2nn(C3CCOCC3)cc2NC(=O)c2csc(n2)-c2ccnc(c2)CCCNC1=O)NCc1ccccc1` (stereo not drawn) [Example 193]: less than 1 µM; `CCN1CCCCCCCCNc2cc(ccn2)-c2nc(cs2)C1=O` [Example 66]: less than 1 µM; `CN1CCOCCNC(=O)c2nn(C)cc2NC(=O)c2csc(n2)-c2ccnc1c2` [Example 222]: less than 0.1 µM.

Staying with this assay, now noted: 1 nM IRAK4, 1.6 μM peptide, 10 μM ATP, 3.5 h at RT; given as numeric bound.
In the case of `O=C1c2coc(n2)-c2ccncc2OCCCN1CCCN1CCCCC1` [Example 102], the half-inhibitory concentration (IC50) was greater than 10 µM. On the same count and under the same terms, for `CN1CCCOc2cnccc2-c2nc(cs2)C1=O` [Example 100] the value was greater than 10 µM.

In turn, `CN1CCCOc2cnccc2-c2nc(c[nH]2)C1=O` [Example 101] showed an IC50 greater than 10 µM. The same measure, in the same setting: for `O=C1Nc2cn(C3CCOCC3)nc2C(=O)NC(CCOCc2ccccc2)C(=O)NCCCc2cc(ccn2)-c2nc1cs2` (stereo not drawn) [Example 199] the value was greater than 10 µM; for `O=C1c2coc(n2)-c2ccnc(c2)OCCCCCCN1CCN1CCCCC1` [Compound 56], greater than 10 µM.

As for `O=C1c2coc(n2)-c2ccnc(c2)OCCCCCCN1CCCN1CCCCC1` [Compound 57], the IC50 was greater than 10 µM. Same read-out and setting: next, `Cn1cc2c(n1)C(=O)NCCCCOc1cc(ccn1)-c1nc(cn1COCC[Si](C)(C)C)C(=O)N2` [Example 94]: greater than 10 µM. The same measure, in the same setting: for `Cn1cc2c(n1)C(=O)NCCOCCOc1cc(ccn1)C1=CC=C(S1)C(=O)N2` [Example 205] the value was greater than 10 µM; for `CCn1cc(N2CCCCCCOc3cc(ccn3)-c3nc(co3)C2=O)cn1` [Compound 50], greater than 10 µM. In turn, `CCOC(=O)CN1CCCc2cc(ccn2)-c2nc(cs2)C(=O)Nc2cn(C3CCOCC3)nc2C(=O)NCC1` [Example 176] registered a half-maximal inhibitory concentration (IC50) greater than 10 µM.

(Values after US9617282B2, “Macrocyclic compounds as IRAK4 inhibitors for the treatment of inflammatory diseases” (BIOGEN MA INC., priority 2013, dated 2017).)
